Laboratory results from patent US20260274829A1, “NEW E3 UBIQUITIN LIGASE LIGAND, PROTEIN DEGRADATION AGENT AND USE THEREOF” (GLUETACS THERAPEUTICS (SHANGHAI) CO., LTD., priority 2023, published 2026).

Molecular target: T1, human Cereblon WT GST-tagged protein (Homo sapiens, UniProt Q96SW2)
T1 construct: purchased CISBIO 64BDCRBNPEH
Test: CRBN binding, HTRF CEREBLON BINDING kit
Conditions: CRBN binding, HTRF CEREBLON BINDING kit
Method: The CEREBLON BINDING kits (specification: 10,000 tests; product number: Catalog #64BDCRBNPEH; CISBIO company) was used to determine the CRBN binding ability of the compounds to be tested through a HTRF method (homogeneous time-resolved fluorescence). The specific methods are as follows: • 1. […] Then, 2.5 μL of human Cereblon WT GST-tagged protein solution was added to each well. Finally, 5 μL of the thoroughly mixed Thalidomide-Re reagent and GST Eu antibody working solution were added to each of the aforementioned wells. […] The blank control wells were sequentially added with 2.5 μL of diluent #9 (1×) solution, 2.5 μL of binding buffer, and 5 μL of thoroughly mixed Thalidomide-Re reagent and GST Eu antibody working solution. • 4. After sealing and incubating the solutions in the aforementioned wells at room temperature for 3 hours, the absorbance values at emission wavelengths of 620 nm and 665 nm were detected by the HTRF method using a Spark microplate reader (V3.1 SP1).
The corresponding CRBN binding inhibition rate was calculated using the following method:
[formula] [formula] [formula] • Note: OD 665 nmcompound is the absorbance value of each well of the compounds to be tested of the present disclosure at an emission wavelength of 665 nm. • OD 620 nmcompound is the absorbance value of each well of the compounds to be tested of the present disclosure at an emission wavelength of 620 nm. • OD 665 nmcontrol is the absorbance value of the blank control well at an emission wavelength of 665 nm. • OD 620 nmcontrol is the absorbance value of the blank control well at an emission wavelength of 620 nm. • OD 665 nmStd0 is the absorbance value of the solvent control well at an emission wavelength of 665 nm. • OD 620 nmStd0 is the absorbance value of the solvent control well at an emission wavelength of 620 nm.

T1 sequence (Q96SW2 whole entry): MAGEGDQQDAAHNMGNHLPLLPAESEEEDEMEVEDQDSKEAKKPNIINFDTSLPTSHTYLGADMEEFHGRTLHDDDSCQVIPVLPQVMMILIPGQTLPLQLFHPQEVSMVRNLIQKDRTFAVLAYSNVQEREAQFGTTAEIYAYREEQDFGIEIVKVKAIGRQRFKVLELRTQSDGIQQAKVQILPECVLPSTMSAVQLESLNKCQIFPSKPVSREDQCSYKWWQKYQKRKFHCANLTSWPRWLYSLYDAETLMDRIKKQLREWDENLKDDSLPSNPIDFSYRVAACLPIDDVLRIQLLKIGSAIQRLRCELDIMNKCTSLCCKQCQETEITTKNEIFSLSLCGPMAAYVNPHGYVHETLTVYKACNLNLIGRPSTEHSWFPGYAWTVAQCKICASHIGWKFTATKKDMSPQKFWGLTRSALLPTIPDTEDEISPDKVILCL

SMILES	IC50
O=C1CCN(c2ccc(CN3CCC(n4cc(NC(=O)c5cnn6ccc(N7C[C@H]8C[C@@H]7CO8)nc56)c(C(F)F)n4)CC3)cc2)C(=O)N1 [GT-05029, 5-((1R,4R)-2-oxa-5-azabicyclo[2.2.1]heptan-5-yl)-N-(3-(difluoromethyl)-1-(1-(4-(2,4-dioxotetrahydropyrimidin-1(2H)-yl)benzyl)piperidin-4-yl)-1H-pyrazol-4-yl)pyrazolo[1,5-a]pyrimidine-3-carboxamide]	500 to 1000 nM
O=C1CCC(c2ccc(CN3CCC(n4cc(NC(=O)c5cnn6ccc(N7C[C@H]8C[C@@H]7CO8)nc56)c(C(F)F)n4)CC3)cc2)C(=O)N1 (stereo partly drawn) [GT-05050, 5-((1R,4R)-2-oxa-5-azabicyclo[2.2.1]heptan-5-yl)-N-(3-(difluoromethyl)-1-(1-(4-(2,6-dioxopiperidin-3-yl)benzyl)piperidin-4-yl)-1H-pyrazol-4-yl)pyrazolo[1,5-a]pyrimidine-3-carboxamide]	< 500 nM
O=C1CCN(c2cccc(CN3CCC(n4cc(NC(=O)c5cnn6ccc(N7C[C@H]8C[C@@H]7CO8)nc56)c(C(F)F)n4)CC3)c2)C(=O)N1 [GT-05051, 5-((1R,4R)-2-oxa-5-azabicyclo[2.2.1]heptan-5-yl)-N-(3-(difluoromethyl)-1-(1-(3-(2,4-dioxotetrahydropyrimidin-1(2H)-yl)benzyl)piperidin-4-yl)-1H-pyrazol-4-yl)pyrazolo[1,5-a]pyrimidine-3-carboxamide]	500 to 1000 nM
O=C1CCC(Nc2cccc(CN3CCC(n4cc(NC(=O)c5cnn6ccc(N7C[C@H]8C[C@@H]7CO8)nc56)c(C(F)F)n4)CC3)c2)C(=O)N1 (stereo partly drawn) [GT-05052, 5-((1R,4R)-2-oxa-5-azabicyclo[2.2.1]heptan-5-yl)-N-(3-(difluoromethyl)-1-(1-(3-((2,6-dioxopiperidin-3-yl)amino)benzyl)piperidin-4-yl)-1H-pyrazol-4-yl)pyrazolo[1,5-a]pyrimidine-3-carboxamide]	1000 to 1900 nM
O=C1CCN(c2ccc(CN3CCC(n4cc(NC(=O)c5cnn6ccc(N7C[C@H]8C[C@@H]7CO8)nc56)c(C(F)F)n4)CC3)nc2)C(=O)N1 [GT-05053, 5-((1R,4R)-2-oxa-5-azabicyclo[2.2.1]heptan-5-yl)-N-(3-(difluoromethyl)-1-(1-((5-(2,4-dioxotetrahydropyrimidin-1(2H)-yl)pyridin-2-yl)methyl)piperidin-4-yl)-1H-pyrazol-4-yl)pyrazolo[1,5-a]pyrimidine-3-carboxamide]	500 to 1000 nM
Nc1nnc(-c2cc(F)ccc2O)cc1N1CCN(Cc2ccc(C3CCC(=O)NC3=O)cc2)CC1 (stereo not drawn) [GT-05062, 3-(4-((4-(3-amino-6-(5-fluoro-2-hydroxyphenyl)pyridazin-4-yl)piperazin-1-yl)methyl)phenyl)piperidine-2,6-dione]	500 to 1000 nM
O=C1CCC(Nc2cccc(CN3C[C@@H]4C[C@H]3CN4c3ccc(-c4cc(F)c5c(c4)C(=O)N(C(C(=O)Nc4nccs4)c4ncn6c4CCC6)C5)cc3)c2)C(=O)N1 (stereo partly drawn) [GT-05118, 2-(6,7-dihydro-5H-pyrrolo[1,2-c]imidazol-1-yl)-2-(6-(4-((1S,4S)-5-(3-((2,6-dioxopiperidin-3-yl)amino)benzyl)-2,5-diazabicyclo[2.2.1]heptan-2-yl)phenyl)-4-fluoro-1-oxoisoindolin-2-yl)-N-(thiazol-2-yl)acetamide]	500 to 1000 nM
CC(C)(O)c1cc2nn(C3CCN(Cc4ccc(C5CCC(=O)NC5=O)cc4)CC3)cc2cc1NC(=O)c1cccc(C(F)(F)F)n1 (stereo not drawn) [GT-05753, N-(2-(1-(4-(2,6-dioxopiperidin-3-yl)benzyl)piperidin-4-yl)-6-(2-hydroxypropan-2-yl)-2H-indazol-5-yl)-6-(trifluoromethyl)picolinamide]	500 to 1000 nM

More lines, now with the values ahead:

IC50	SMILES
500 to 1000 nM	O=C1CCC(c2ccc(CN3C[C@@H]4C[C@H]3CN4c3ccc(-c4cc(F)c5c(c4)C(=O)N(C(C(=O)Nc4nccs4)c4ncn6c4CCC6)C5)cc3)cc2)C(=O)N1 (stereo partly drawn) [GT-05115, 2-(6,7-dihydro-5H-pyrrolo[1,2-c]imidazol-1-yl)-2-(6-(4-((1S,4S)-5-(4-(2,6-dioxopiperidin-3-yl)benzyl)-2,5-diazabicyclo[2.2.1]heptan-2-yl)phenyl)-4-fluoro-1-oxoisoindolin-2-yl)-N-(thiazol-2-yl)acetamide]
500 to 1000 nM	O=C1CCN(c2ccc(CN3C[C@@H]4C[C@H]3CN4c3ccc(-c4cc(F)c5c(c4)C(=O)N(C(C(=O)Nc4nccs4)c4ncn6c4CCC6)C5)cc3)cc2)C(=O)N1 (stereo partly drawn) [GT-05116, 2-(6,7-dihydro-5H-pyrrolo[1,2-c]imidazol-1-yl)-2-(6-(4-((1S,4S)-5-(4-(2,4-dioxotetrahydropyrimidin-1(2H)-yl)benzyl)-2,5-diazabicyclo[2.2.1]heptan-2-yl)phenyl)-4-fluoro-1-oxoisoindolin-2-yl)-N-(thiazol-2-yl)acetamide]
500 to 1000 nM	O=C1CCN(c2cccc(CN3C[C@@H]4C[C@H]3CN4c3ccc(-c4cc(F)c5c(c4)C(=O)N(C(C(=O)Nc4nccs4)c4ncn6c4CCC6)C5)cc3)c2)C(=O)N1 (stereo partly drawn) [GT-05117, 2-(6,7-dihydro-5H-pyrrolo[1,2-c]imidazol-1-yl)-2-(6-(4-((1S,4S)-5-(3-(2,4-dioxotetrahydropyrimidin-1(2H)-yl)benzyl)-2,5-diazabicyclo[2.2.1]heptan-2-yl)phenyl)-4-fluoro-1-oxoisoindolin-2-yl)-N-(thiazol-2-yl)acetamide]
500 to 1000 nM	O=C1CCN(c2ccc(CN3C[C@@H]4C[C@H]3CN4c3ccc(-c4cc(F)c5c(c4)C(=O)N(C(C(=O)Nc4nccs4)c4ncn6c4CCC6)C5)cc3)nc2)C(=O)N1 (stereo partly drawn) [GT-05119, 2-(6,7-dihydro-5H-pyrrolo[1,2-c]imidazol-1-yl)-2-(6-(4-((1S,4S)-5-((5-(2,4-dioxotetrahydropyrimidin-1(2H)-yl)pyridin-2-yl)methyl)-2,5-diazabicyclo[2.2.1]heptan-2-yl)phenyl)-4-fluoro-1-oxoisoindolin-2-yl)-N-(thiazol-2-yl)acetamide]
500 to 1000 nM	CN(Cc1ccc(C2CCC(=O)NC2=O)cc1)C1CCN(c2ccc(-c3cc(F)c4c(c3)C(=O)N(C(C(=O)Nc3nccs3)c3ncn5c3CCC5)C4)cc2)CC1 (stereo not drawn) [GT-05218, 2-(6,7-dihydro-5H-pyrrolo[1,2-c]imidazol-1-yl)-2-(6-(4-(4-((4-(2,6-dioxopiperidin-3-yl)benzyl)(methyl)amino)piperidin-1-yl)phenyl)-4-fluoro-1-oxoisoindolin-2-yl)-N-(thiazol-2-yl)acetamide]
< 500 nM	CN(Cc1ccc(N2CCC(=O)NC2=O)cc1)C1CCN(c2ccc(-c3cc(F)c4c(c3)C(=O)N(C(C(=O)Nc3nccs3)c3ncn5c3CCC5)C4)cc2)CC1 (stereo not drawn) [GT-05219, 2-(6,7-dihydro-5H-pyrrolo[1,2-c]imidazol-1-yl)-2-(6-(4-(4-((4-(2,4-dioxotetrahydropyrimidin-1(2H)-yl)benzyl)(methyl)amino)piperidin-1-yl)phenyl)-4-fluoro-1-oxoisoindolin-2-yl)-N-(thiazol-2-yl)acetamide]
< 500 nM	CN(Cc1cccc(N2CCC(=O)NC2=O)c1)C1CCN(c2ccc(-c3cc(F)c4c(c3)C(=O)N(C(C(=O)Nc3nccs3)c3ncn5c3CCC5)C4)cc2)CC1 (stereo not drawn) [GT-05281, 2-(6,7-dihydro-5H-pyrrolo[1,2-c]imidazol-1-yl)-2-(6-(4-(4-((3-(2,4-dioxotetrahydropyrimidin-1(2H)-yl)benzyl)(methyl)amino)piperidin-1-yl)phenyl)-4-fluoro-1-oxoisoindolin-2-yl)-N-(thiazol-2-yl)acetamide]
500 to 1000 nM	CN(Cc1ccc(N2CCC(=O)NC2=O)cn1)C1CCN(c2ccc(-c3cc(F)c4c(c3)C(=O)N(C(C(=O)Nc3nccs3)c3ncn5c3CCC5)C4)cc2)CC1 (stereo not drawn) [GT-05282, 2-(6,7-dihydro-5H-pyrrolo[1,2-c]imidazol-1-yl)-2-(6-(4-(4-(((5-(2,4-dioxotetrahydropyrimidin-1(2H)-yl)pyridin-2-yl)methyl)(methyl)amino)piperidin-1-yl)phenyl)-4-fluoro-1-oxoisoindolin-2-yl)-N-(thiazol-2-yl)acetamide]
1000 to 1900 nM	CN(Cc1ccc(N2CCC(=O)NC2=O)nc1)C1CCN(c2ccc(-c3cc(F)c4c(c3)C(=O)N(C(C(=O)Nc3nccs3)c3ncn5c3CCC5)C4)cc2)CC1 (stereo not drawn) [GT-05283, 2-(6,7-dihydro-5H-pyrrolo[1,2-c]imidazol-1-yl)-2-(6-(4-(4-(((6-(2,4-dioxotetrahydropyrimidin-1(2H)-yl)pyridin-3-yl)methyl)(methyl)amino)piperidin-1-yl)phenyl)-4-fluoro-1-oxoisoindolin-2-yl)-N-(thiazol-2-yl)acetamide]
< 500 nM	CN(Cc1cccc(NC2CCC(=O)NC2=O)c1)C1CCN(c2ccc(-c3cc(F)c4c(c3)C(=O)N(C(C(=O)Nc3nccs3)c3ncn5c3CCC5)C4)cc2)CC1 (stereo not drawn) [GT-05284, 2-(6,7-dihydro-5H-pyrrolo[1,2-c]imidazol-1-yl)-2-(6-(4-(4-((3-((2,6-dioxopiperidin-3-yl)amino)benzyl)(methyl)amino)piperidin-1-yl)phenyl)-4-fluoro-1-oxoisoindolin-2-yl)-N-(thiazol-2-yl)acetamide]
